# Results as given in patent publication US20240075017A1 (priority 2021, published 2024).
# System: SARS-CoV-2 (B.1.351, beta variant)
# Set-up: species or system C57BL/6 mice
# Settings: mouse, in vivo
structure (smiles),measurement,value
"Nc1nccc2c1ncn2[C@@H]1C=C(CO)[C@@H](O)[C@H]1O [DZNep, 3-deazaneplanocin A]","abundance of viral transcripts N, M and E in lung RNA by RT-qPCR",significant DZNep-dependent reduction in abundance of viral transcripts
same,lung infectious viral load (titration of lung homogenate supernatant on Vero E6 cells),significant reduction of the viral load in the lungs
